From PubChem BioAssay AID256 (DTP/NCI, 2004)
Several values for one entry are separate records, joined by “and”; a condition that tells them apart may be missing. Identical values can stand only once. Toxic doses and inconclusive results are not listed. How the source made its calls: active means survival T/C of 150% or more; inactive means T/C below 125% in these data.

System: CD2F1 mice, L1210 leukemia ip, survival T/C
Test: NCI In Vivo Anticancer Drug Screen. Data for tumor model L1210 Leukemia (intraperitoneal) in CD2F1 (CDF1) mice
Conditions: endpoint: mean survival time, higher = longer survival
In short: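 Tumor-bearing mice (transplanted tumor) were split into treated and vehicle control groups, and the measured endpoint of each treated group was divided by that of its vehicle controls.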

[1] = dose: 100.0 mg/kg/injection, schedule: Q04DX003 (ip), vehicle: saline with Tween-80
[2] = dose: 200.0 mg/kg/injection, schedule: Q04DX003 (ip), vehicle: saline with Tween-80
[3] = dose: 400.0 mg/kg/injection, schedule: Q04DX003 (ip), vehicle: saline with Tween-80
[4] = dose: 100.0 mg/kg/injection, schedule: Q01DX009 (ip), vehicle: saline with Tween-80
[5] = dose: 200.0 mg/kg/injection, schedule: Q01DX009 (ip), vehicle: saline with Tween-80
[6] = dose: 400.0 mg/kg/injection, schedule: Q01DX009 (ip), vehicle: saline with Tween-80
[7] = dose: 75.0 mg/kg/injection, schedule: Q01DX001 (ip), vehicle: saline
[8] = dose: 150.0 mg/kg/injection, schedule: Q01DX001 (ip), vehicle: saline
[9] = dose: 25.0 mg/kg/injection, schedule: Q01DX009 (ip), vehicle: saline with Tween-80
[10] = dose: 50.0 mg/kg/injection, schedule: Q01DX009 (ip), vehicle: saline with Tween-80

Measured: T/C

c1ccc(COCC2OC(C3N(c4ccccc4)CCN3c3ccccc3)C(OCc3ccccc3)C2OCc2ccccc2)cc1 (stereo unspecified)
inactive: dose: 12.5 mg/kg/injection, schedule: Q01DX005 (ip), vehicle: distilled water + Tween-80 102 % of control | dose: 25.0 mg/kg/injection, schedule: Q01DX005 (ip), vehicle: distilled water + Tween-80 98 % of control | dose: 50.0 mg/kg/injection, schedule: Q01DX005 (ip), vehicle: distilled water + Tween-80 102 % of control | dose: 100.0 mg/kg/injection, schedule: Q01DX005 (ip), vehicle: distilled water + Tween-80 97 % of control | dose: 200.0 mg/kg/injection, schedule: Q01DX005 (ip), vehicle: distilled water + Tween-80 92 % of control

CCC[CH2][Sn]([CH2]CCC)([O]C(=O)COc1ccc(C(=O)c2ccccc2)c(O)c1)[O]C(=O)COc1ccc(C(=O)c2ccccc2)c(O)c1
inactive: dose: 1.56 mg/kg/injection, schedule: Q01DX001 (ip), vehicle: saline with Tween-80 95 % of control | dose: 3.13 mg/kg/injection, schedule: Q01DX001 (ip), vehicle: saline with Tween-80 98 % of control | dose: 6.25 mg/kg/injection, schedule: Q01DX001 (ip), vehicle: saline with Tween-80 98 % of control | dose: 12.5 mg/kg/injection, schedule: Q01DX001 (ip), vehicle: saline with Tween-80 105 % of control

O=c1ccn(C2OC(CCl)C(O)C2O)c(=O)[nH]1 (stereo unspecified)
inactive: dose: 50.0 mg/kg/injection, schedule: Q01DX001 (ip), vehicle: saline 105 % of control | dose: 100.0 mg/kg/injection, schedule: Q01DX001 (ip), vehicle: saline 102 % of control | dose: 200.0 mg/kg/injection, schedule: Q01DX001 (ip), vehicle: saline 94 % of control

ClCC(CCl)N1CCCCC1
inactive: dose: 6.25 mg/kg/injection, schedule: Q01DX001 (ip), vehicle: saline 103 % of control | dose: 6.25 mg/kg/injection, schedule: Q01DX009 (ip), vehicle: saline sonified 102 % of control | dose: 6.25 mg/kg/injection, schedule: Q04DX003 (ip), vehicle: saline 101 % of control | dose: 12.5 mg/kg/injection, schedule: Q01DX001 (ip), vehicle: saline 104 % of control | dose: 12.5 mg/kg/injection, schedule: Q01DX009 (ip), vehicle: saline sonified 109 % of control | dose: 12.5 mg/kg/injection, schedule: Q04DX003 (ip), vehicle: saline 104 % of control | dose: 25.0 mg/kg/injection, schedule: Q01DX001 (ip), vehicle: saline 107 % of control | dose: 25.0 mg/kg/injection, schedule: Q04DX003 (ip), vehicle: saline 106 % of control

CC12CCC(O)CC1=CCC1C2CCC2(C)C1CCC21CCNP(=O)(N(CCCl)CCCl)O1 (stereo unspecified)
inactive: dose: 62.5 mg/kg/injection, schedule: Q01DX001 (ip), vehicle: saline 98 % of control | dose: 125.0 mg/kg/injection, schedule: Q01DX001 (ip), vehicle: saline 101 % of control | dose: 250.0 mg/kg/injection, schedule: Q01DX001 (ip), vehicle: saline 93 % of control | dose: 500.0 mg/kg/injection, schedule: Q01DX001 (ip), vehicle: saline 97 % of control

O=S(=O)(O)C(S(=O)(=O)O)S(=O)(=O)O
inactive: [1] 96 % of control | [2] 97 % of control | [3] 93 % of control

COc1ccc(NC(=O)CCC(=O)Oc2ccccc2)cc1
inactive: [4] 94 % of control | [1] 100 % of control | [5] 97 % of control | [2] 100 % of control | [6] 94 % of control | [3] 94 % of control

Cc1ccc2c(c1)nc1c3ccccc3nnn21
inactive: [7] 95 % of control | [8] 95 % of control

COc1ccc(OC)c(/C=C(\C#N)c2ccc([N+](=O)[O-])cc2)c1
inactive: dose: 16.5 mg/kg/injection, schedule: Q01DX009 (ip), vehicle: saline with Tween-80 87 % of control | [9] 87 % of control | [4] 90 % of control | [1] 91 % of control | [5] 86 % of control | [2] 101 % of control

CCCCCC(=O)CCCC
inactive: [10] 109 % of control | [4] 102 % of control | [5] 105 % of control

NCC(Cc1ccc(O)cc1)P(=O)(O)O (stereo unspecified)
inactive: [4] 102 % of control | [5] 105 % of control | [6] 93 % of control

CC(C)(C(=O)c1ccccc1)C(OC(=O)c1ccccc1)c1ccccc1 (stereo unspecified)
inactive: dose: 100.0 mg/kg/injection, schedule: Q01DX001 (ip), vehicle: saline with Tween-80 106 % of control | dose: 200.0 mg/kg/injection, schedule: Q01DX001 (ip), vehicle: saline with Tween-80 98 % of control | dose: 400.0 mg/kg/injection, schedule: Q01DX001 (ip), vehicle: saline with Tween-80 104 % of control

CN(N)C1CCCCC1
inactive: [7] 100 % of control | [8] 100 % of control

CC(=O)c1cccc([N+](=O)[O-])c1
inactive: dose: 100.0 mg/kg/injection, schedule: Q01DX009 (ip), vehicle: other 105 % of control | dose: 200.0 mg/kg/injection, schedule: Q01DX009 (ip), vehicle: other 97 % of control | dose: 400.0 mg/kg/injection, schedule: Q01DX009 (ip), vehicle: other 102 % of control

O=[N+]([O-])c1ccc(O)c(CCl)c1
inactive: [7] 102 % of control | [8] 93 % of control | dose: 300.0 mg/kg/injection, schedule: Q01DX001 (ip), vehicle: saline 96 % of control

CC1(C)CC=C(c2ccccc2)OC1c1ccccc1 (stereo unspecified)
inactive: dose: 100.0 mg/kg/injection, schedule: Q04DX002 (ip), vehicle: other 98 % of control | dose: 200.0 mg/kg/injection, schedule: Q04DX002 (ip), vehicle: other 94 % of control | dose: 400.0 mg/kg/injection, schedule: Q04DX002 (ip), vehicle: other 102 % of control

Cc1csc2ncn(C3OC(CO)C(O)C3O)c(=O)c12 (stereo unspecified)
inactive: dose: 12.5 mg/kg/injection, schedule: Q01DX009 (ip), vehicle: saline with Tween-80 110 % of control | [9] 101 % of control | [10] 94 % of control

CCCC(=O)OC1C2OP(=O)(O)OCC2OC1n1c(=S)[nH]c2c(N)ncnc21 (stereo unspecified)
inactive: dose: 6.25 mg/kg/injection, schedule: Q01DX005 (ip), vehicle: water 93 % of control | dose: 12.5 mg/kg/injection, schedule: Q01DX005 (ip), vehicle: water 97 % of control | dose: 25.0 mg/kg/injection, schedule: Q01DX005 (ip), vehicle: water 101 % of control | dose: 50.0 mg/kg/injection, schedule: Q01DX005 (ip), vehicle: water 93 % of control | dose: 100.0 mg/kg/injection, schedule: Q01DX005 (ip), vehicle: water 101 % of control

CCCCCCCCCCCCCCP(=O)(O)O
inactive: dose: 75.0 mg/kg/injection, schedule: Q01DX001 (ip), vehicle: other 92 % of control | dose: 150.0 mg/kg/injection, schedule: Q01DX001 (ip), vehicle: other 98 % of control | dose: 300.0 mg/kg/injection, schedule: Q01DX001 (ip), vehicle: other 96 % of control

CNC(=O)Nc1ccncc1
inactive: [4] 97 % of control | [5] 102 % of control | [6] 102 % of control

O=S(=O)(/C=C/S(=O)(=O)c1ccccc1)c1ccccc1
inactive: dose: 62.5 mg/kg/injection, schedule: Q01DX009 (ip), vehicle: Klucel (hydroxypropylcellulose) (HPC) 97 % of control | dose: 125.0 mg/kg/injection, schedule: Q01DX009 (ip), vehicle: Klucel (hydroxypropylcellulose) (HPC) 98 % of control

N#CC(NC(=O)NCCO)c1ccccc1 (stereo unspecified)
inactive: [4] 94 % of control | [5] 96 % of control | [6] 92 % of control

S=C=Nc1cccc(Cl)c1
inactive: dose: 75.0 mg/kg/injection, schedule: Q01DX009 (ip), vehicle: saline with Tween-80 95 % of control and 100 % of control | dose: 150.0 mg/kg/injection, schedule: Q01DX009 (ip), vehicle: saline with Tween-80 100 % of control | dose: 300.0 mg/kg/injection, schedule: Q01DX009 (ip), vehicle: saline with Tween-80 86 % of control

CCCC(CCC)=NCCN=C(CCC)CCC
inactive: dose: 100.0 mg/kg/injection, schedule: Q04DX003 (ip), vehicle: saline sonified 97 % of control | dose: 200.0 mg/kg/injection, schedule: Q04DX003 (ip), vehicle: saline sonified 97 % of control | dose: 400.0 mg/kg/injection, schedule: Q04DX003 (ip), vehicle: saline sonified 97 % of control

CC(=O)OCCCC(C)Nc1ccnc2cc(Cl)ccc12 (stereo unspecified)
inactive: [10] 100 % of control | [4] 96 % of control | [1] 96 % of control | [5] 96 % of control | [2] 98 % of control
